Experimental data published in the NIST ThermoML archive (doi:10.1016/j.jct.2012.12.014).

Assay: mn = molality of the nth substance listed, in mol/kg
Conditions: 298.15 K, 101 kPa, Liquid, Vibrating tube method

Nc1cc[nH]c(=O)n1 [4-amino-2-hydroxypyrimidine] + O
Conditions	mass density [kg/m3]
m1 = 0.02193	997.872
m1 = 0.02698	998.062
m1 = 0.03192	998.246
m1 = 0.03702	998.438
m1 = 0.04187	998.618
m1 = 0.04604	998.777
m1 = 0.05099	998.96
m1 = 0.05598	999.144
m1 = 0.06284	999.402
